# US12629406B2, “Alterations in endothelin receptors following hemorrhage and resuscitation by centhaquin” (MIDWESTERN UNIVERSITY, priority 2018, dated 2026)
# What was measured:
# [1] = 24 human subjects; cited from earlier work
# [2] = Phase II study of PMZ-2010 as resuscitative agent for hypovolemic shock (CTRI/2017/03/008184), interim analysis; type: in vivo, human
# Excerpt: A prospective, multi-centric, randomized, double-blind, parallel, saline controlled phase II study of PMZ-2010 (centhaquin) as a resuscitative agent for hypovolemic shock due to excessive blood loss (CTRI/2017/03/008184) is being conducted. All subjects received standard treatment for shock (the type of treatment and care the enrolling institution would provide). Patients were randomly assigned to either control cohort (N=7) that received standard treatment along with normal saline or PMZ-2010 cohort (N=12) that received standard treatment along with PMZ-2010.
# [3] = system: IL-6; assay: Plasma IL-6 in hemorrhaged rats (ELISA); type: in vivo, rat; details: p<0.01
# Protocol: (§1) Induction of Hemorrhagic Shock. Hemorrhage was induced by withdrawing blood from the femoral artery at a rate of approximately 0.5 to 1 mL/min until a MAP of 35 mmHg was reached. This MAP was maintained for 30 min by further withdrawal of blood, if necessary. The hemorrhagic shock model used in the present study is a well-established rodent model of manageable pressure hemorrhage (Buehler et al. 2000; Gulati et al. 1997a; Gulati and Sen 1998). The volume of blood loss was about approximately 8.0 ml in each rat and was similar in various groups, amounting to approximately 40% of the total blood. Measured hematocrit levels were similar in various groups. The duration of blood withdrawal was approximately 15 minutes.
# Experimental design. […] The blood samples, for biochemical estimations, were collected at 30 minutes of resuscitation and cardiovascular parameters were monitored till 60 minutes after which the animal was sacrificed. […]
# [4] = in vivo; cited from earlier work
# [5] = system: ETA receptors; assay: ETA receptor expression in tissues of hemorrhaged rats (western blot); type: in vivo, rat; details: for change in ETA receptor expression, abdominal aorta: compared to hemorrhaged rats with no treatment; for change in ETA receptor expression, renal medulla: compared to hemorrhagic shock
# Protocol: as §1
# Experimental design. To determine the resuscitative effect of centhaquin on cardiovascular system and plasma cytokines in hemorrhagic shock, rats were randomly divided into five groups, Group 1: Sham control (Non-hemorrhaged) (n=5), Group 2: Hemorrhage with no resuscitation (n=5); Group 3: Hemorrhage followed by resuscitation with 3% hypertonic saline (vehicle) (n=5); Group 4: Hemorrhage followed by resuscitation with vehicle plus centhaquin (0.017 mg/kg) (n=5); and Group 5: Hemorrhage followed by resuscitation with vehicle plus centhaquin (0.05 mg/kg) (n=5). Resuscitation was started 30 min after induction of hemorrhagic shock as an intravenous infusion (1 mL/min) through femoral vein using an infusion pump (Harvard Apparatus Infusion/Withdrawal Pump, Millis, MA). The blood samples, for biochemical estimations, were collected at 30 minutes of resuscitation and cardiovascular parameters were monitored till 60 minutes after which the animal was sacrificed. The volume of resuscitative solution was kept equal to the volume of blood loss.
# Estimation of ETA and ETB receptor expression. Expression of ETA and ETB receptors was determined using the western blotting technique (Briyal et al. 2015; Leonard and Gulati 2013) with some modifications. After completion of cardiovascular experiments animals were sacrificed and the organs (brain, heart, liver, lung, kidney and abdominal aorta) were immediately dissected out, flash frozen on dry ice, and stored at −80° C. for further analysis. The tissue was homogenized with 10×(w/v) RIPA lysis buffer (20 mM Tris-HCl pH 7.5, 120 mM NaCl, 1.0% TritonX-100, 1.0% sodium deoxycholate, 0.1% sodium dodecyl sulfate (SDS), 10% glycerol, 1 mM disodium ethylene diamine tetraacetic acid (EDTA), 1 mM ethylene glycol-bis(β-aminoethyl ether)-N,N,N′,N′-tetraacetic acid tetrasodium salt (EGTA), phosphatase inhibitors and Complete Mini Protease inhibitor cocktail tablet (Roche Diagnostics, Indianapolis, IN). Proteins were isolated in solubilized form and concentrations were measured by Folin-Ciocalteu's phenol reagent (Lowry et al. 1951). Solubilized protein (60 μg) was denatured in Laemmli sample buffer (Bio-Rad Laboratories, Hercules, CA), resolved on 10% sodium dodecyl sulfate-polyacrylamide gel electrophoresis (SDS-PAGE) and then transferred onto the nitrocellulose membrane followed by blocking the membrane with SuperBlock® Blocking Buffer in tris-buffered saline (TBS) (ThermoFisher Scientific, Hanover Park, IL). The membranes were washed three times with 1×TBS-Tween (TBST) and incubated with rabbit polyclonal anti-ETA receptor (ab85163, Abcam, Cambridge, MA, 1:1000) or anti-ETB receptor (ab117529, Abcam, Cambridge, MA, 1:1000) or mouse monoclonal anti-β-actin (a1978, Sigma-Aldrich, St. Louis, MO) antibodies, followed by horseradish peroxidase (HRP)-conjugated secondary antibodies goat anti-rabbit (sc2004, Santa Cruz Biotechnology, Dallas, TX, 1:2000) or goat anti-mouse (ab98693, Abcam, Cambridge, MA, 1:10,000) and visualized by SuperSignal® West Pico Chemiluminescent Substrate (ThermoFisher Scientific, Hanover Park, IL) using the ChemiDoc™ MP Imaging System (Bio-Rad Laboratories, Hercules, CA) and then analyzed using ImageJ (NIH) software.
smiles,measurement,setting,value
"Cc1cccc(N2CCN(CCc3ccc4ccccc4n3)CC2)c1 [centhaquin, 2-[2-(4-(3-methyphenyl)-1-piperazinyl)]ethyl-quinoline]",safety and tolerability,[1],safe and was well tolerated
same,increase of diastolic blood pressure,"[2]; 48 hours after resuscitation, control 15.4%",34.9%
same,blood urea nitrogen versus control cohort,[2]; baseline and discharge,similar
same,decrease of serum creatinine level,"[2]; baseline to discharge, control 25.35%",42.61%
same,increase of glomerular filtration rate,"[2]; baseline to discharge, control 40.00%",81.52%
same,time spent on ventilator,[2]; control 5.09±3.14 days,0.85 ± 0.71 days
same,total amount of vasopressors needed in first 48 hours of resuscitation,[2]; control 18.4±12.1 mg,1.3 ± 1.2 mg
same,decrease of blood lactate levels,[2]; control 47%,63%
same,"time in intensive care unit, of the total hospital stay",[2]; control 57.3%,39.3%
same,Total Number of doses administered,"[2]; first 48 hours, 12 patients",13 doses in 12 patients
same,Number of doses per patient,"[2]; first 48 hours, Mean ± SEM",1.08 ± 0.08
same,"increase in glomerular filtration rate, more compared to standard treatment",[2]; in vivo,41.52%
same,"reduction of serum creatinine levels, more compared to standard treatment",[2]; in vivo,17.26%
same,"total blood products administered in the first 48 hours, less than control",[2]; in vivo,23.4%
same,"total fluids needed in the first 48 hours of resuscitation, less than control",[2]; in vivo,19.9%
same,adverse events (primary endpoint of safety),"[2]; patients, N=12",no adverse event was reported
same,blood pressure increase versus control cohort,"[2]; systolic and diastolic, baseline to discharge (FIG. 9)",more than that observed in control cohort
same,increase of systolic blood pressure from baseline,"[2]; until 48 hours after resuscitation, control 34.5%",45.2%
same,plasma IL-6 level compared to hypertonic saline alone,[3],further increased
same,half-life,[4],about one
same,volume of distribution,[4],high
same,"change in ETA receptor expression, abdominal aorta",[5]; centhaquin 0.017 mg/kg,−47.6%
same,"change in ETA receptor expression, renal medulla",[5]; centhaquin 0.017 mg/kg,−61.3%
same,"change in ETA receptor expression, abdominal aorta",[5]; centhaquin 0.05 mg/kg,−49.2%
same,"change in ETA receptor expression, renal medulla",[5]; centhaquin 0.05 mg/kg,−70.5%
same,"change in ETA expression, renal medulla (summary)",[5]; dose not given,−61%
same,"ETA receptor expression in brain, heart, liver, lungs and kidney cortex",[5]; hemorrhage and resuscitation,no change
same,"shock-induced increase (140%) in ETA expression, abdominal aorta","[5]; summary, also attenuated by saline",attenuated
